According to US9381210B2 (Wisconsin Alumni Research Foundation, priority 2013, dated 2016):

What was measured:
[1] = test system: CML sCD34+ cells; assay: Long-term culture initiating cell assay (LTC-IC); assay type: cell-based, human; conditions: imatinib
Protocol: Sorted iPSC-derived lin^−CD34^+CD45^+ cells were plated in a six-well plate at 10^4 cells/well containing 5-7 day-old cultures of murine 1×10^5 M2-10B4 and OP9 stromal cells (1:1 ratio mix) in LTC-IC medium consisting of SFM supplemented with 10 μM hydrocortisone, 50 ng/ml SCF, 5 ng/ml IL3, and 50 ng/ml IL6. Cultures were maintained at 37° C. in a humidified atmosphere with 5% CO2, and fed at weekly intervals. After five weeks, cells were harvested and analyzed for CFC potential as described above. LTC-IC assay for somatic lin^−CD34^+CD45^+ cells was performed using M2-10B4 cells exactly as described in the Stem Cell Technologies protocol to be found online at stemcell.com/en/Technical-Resources/db5a9/28412_Itc_ic-H.aspx.

[2] = test system: iCML CD34+ cells; conditions: CFSE cultures, 5 μM imatinib, four days, annexin V
Protocol: Differentiated cells were labeled with 1 μM carboxy-fluorescein diacetate succinimidyl diester (CFSE; Molecular Probes, Eugene, Oreg.) as previously described (Copland et al., 2006; Holtz et al., 2002). These cells were then incubated overnight in CSSM medium supplemented with growth factors to allow excess unbound dye to leak out of the cells. Cells cultured in the presence of 10 μg/ml mitomycin C (Sigma Aldrich) were used to establish the CFSEmax (undivided cell population). The next day, CFSE^bright cells were sorted by FACArias to exclude non-labeled and CFSE^dim populations. […] At the end of the culture period, cells were stained with CD34-APC and 7AAD for flow cytometry analysis. The percentage of cells in each generation was determined using FlowJo software (Tree Star, Ashland, Oreg.), with the position of the parent generation set on the basis of the fluorescence profile of undivided cells.

[3] = test system: CML iCD34+ cells; assay: Adhesion assay to fibronectin; assay type: cell-based, human; conditions: 5 μM imatinib, 24 hours
[4] = test system: CML sCD34+ cells; assay: Hematopoietic colony-forming assay; assay type: cell-based, human
Excerpt: CD43^+ hematopoietic cells were collected from differentiated iPSC cultures using MACS and labeled with CD235a/CD41a FITC, CD45 APC and CD38 PE (BD Pharmingen). Lin^−CD45^+CD38^+ and lin^−CD45^+CD38^− subpopulations were obtained by fluorescence-activated cell sorter (FACSAria) (Vodyanik et al., 2006). Bone marrow mononuclear cells from CML patients in the chronic phase were purchased commercially (AllCells or Applied StemCells), or obtained from the patients at the University of Wisconsin Hospital and Clinics (Madison, Wis.) with approval from the University of Wisconsin Institutional Review Board. Donors had previously signed an Institutional Review Board-approved consent. Bone marrow cells from healthy donors were obtained from Cincinnati Children's Hospital Medical Center (CCHMC). Mononuclear cells were labeled with the lineage-specific markers CD2, CD3, CD14, CD15, CD16, CD19, CD20, CD24, CD41a, CD56, CD66b, and Glycophorin A (FITC-conjugated antibodies), CD34 APC (BD Pharmingen) and DAPI to exclude dead cells. Live lin^−CD34^+ cells were isolated using FACSAria (BD).
Hematopoietic clonogenic assays were performed using serum-containing StemMACS semisolid clonogenic medium (Miltenyi Biotec, CA). Colonies were scored after fourteen to 21 days of incubation.

[5] = test system: OLFM4; assay: OLFM4 expression by QPCR in CML iCD34+ cells; assay type: cell-based, human; conditions: CML iCD34+ cells treated with imatinib
Protocol: iPSCs-derived lin^−CD34^+CD45^+ cells and somatic CML bone marrow lin^−CD34^+ were transfected with 100 nM of either siOLFM4 or scrambled (AllStars Neg. siRNA AF 488) using HiPerfect transfection reagent according to the manufacturer's protocol (all from Qiagen). The transfection efficiency was 50-60% as evaluated by using control ALLStars Neg. siRNA AF488. As determined by QPCR performed 24 hours after transfection, the silencing efficiency was 70-75% (FIG. 9D).
RNA was isolated from the cell subpopulations using PureLink RNA mini kit (Life Technologies). cDNA synthesis was carried out using Advantage RT-for-PCR kit (Clontech). Quantitative real-time PCR analysis was performed using Gand PlatinumSYBR Green qPCR SuperMix-UDG kit (Life Technologies) and self-designed specific primers for BCR-ABL (forward […] (SEQ ID NO:1); reverse […] (SEQ ID NO:2)), OLFM4 (forward […] (SEQ ID NO:3); reverse […] (SEQ ID NO:4)) and GAPDH (forward […] (SEQ ID NO:5); reverse […] (SEQ ID NO:6)).
The reactions were run on a Mastercyclerep Realplex™ thermal cycler (Eppendorf) and expression levels were calculated by minimal cycle threshold values (Ct) normalized to the reference expression of GAPDH in each sample (Pfaffl, 2001). When specified, K562 was used as a reference. All QPCR products were analyzed on 1.2% agarose gels to confirm the specificity of detection.

[6] = test system: lin-CD34+ cells from CML bone marrow; assay: Xenograft of siRNA-treated CML lin-CD34+ cells; assay type: in vivo, Nod scid gamma (NSG) mice; conditions: four mice, 16 weeks; two out of four control siRNA animals engrafted
Protocol: Sorted lin^−CD34^+ cells from CML bone marrow were transduced with either AllStars Negative control or OLFM4 siRNA for 24 hours. Cells were then washed and transplanted into Nod scid gamma (NSG) mice at 5-10×10^3 cells. Four mice were injected with cells treated with control siRNA and four mice were injected with OLFM4 siRNA. The mice were then analyzed at 16 weeks using flow cytometry for live human CD45^+ cells in bone marrow, liver, spleen, and peripheral blood.
The cultured cells were labeled with human CD45, mouse CD45 and DAPI and sorted for live human CD45^+ mouse CD45^− cells. The sorted cells were then plated in methyl cellulose media for hematopoietic progenitor assay and RNA extracted for PCR.

[7] = test system: sCD34+ cells; assay: Cell proliferation assay; assay type: cell-based, human; conditions: serum-free cultures without cytokines, OLFM4 300 ng/ml
Protocol: Total lin^−CD34^+, lin^−CD34^+CD38^− or lin^−CD34^+CD38^+ were plated in triplicate in 96-well plate at 10^3 cells/well. […] When specified, the 300 ng/ml OLFM4 (Acro Biosystem) or the following growth factors were added: 10 ng/ml IL3, 100 ng/ml SCF, 100 ng/ml Flt3L, 100 ng/ml IL6 and 200 ng/ml GM-CSF. Viable cell yields were determined by counting trypan blue excluding viable cells using a hemocytometer.

[8] = test system: OLFM4; assay: OLFM4 expression by RT-PCR/QPCR in sCD34+ cells; assay type: cell-based, human; conditions: sCD34+ cells treated with G-CSF (10 ng/ml, 24 hours)

Question: With Cc1ccc(NC(=O)c2ccc(CN3CCN(C)CC3)cc2)cc1Nc1nccc(-c2cccnc2)n1 [imatinib, 4-[(4-methylpiperazin-1-yl)methyl]-N-(4-methyl-3-{[4-(pyridin-3-yl)pyrimidin-2-yl]amino}phenyl)benzamide] as the molecule, how does the LTC-ICs [1] read?
Answer: little effect

Question: What about the “apoptosis in more mature iCD34dim and iCD34- cells” value [2] of the same molecule?
Answer: substantial increase in apoptosis

Question: What about the “apoptosis in most primitive iCD34bright cells” value [2] of the same molecule?
Answer: resistant to imatinib-induced apoptosis

Question: What about the adhesion to fibronectin [3] of the same molecule?
Answer: partially restored

Question: What about the “response of parental bone marrow cells to imatinib (myeloid CFC potential)” value ([4]; parental lin-CD34+ BM cells of the CML patient, 5 μM imatinib, 24 hours pretreatment) of the same molecule?
Answer: sensitivity

Question: And the “OLFM4 expression (QPCR)” value [5]?
Answer: augmentation of OLFM4 expression

Question: What does the source list for “OLFM4: OLFM4 protein (Acro Biosystem) added to medium at 300 ng/ml; secreted glycoprotein”?
Answer: animals showing engraftment (live human CD45+ cells) [6]: none; reversal of the knockdown effect on CFCs by OLFM4 pretreatment ([4]; CML sCD34+ cells, OLFM4 protein 300 ng/ml): can be reversed; proliferation of sCD34+ cells [7]: potentiates expansion; proliferation of sCD34+ cells ([7]; listed as OLFM4 protein): enhanced proliferation

B1: G-CSF: cytokine used at 10 ng/ml to induce OLFM4 expression in sCD34+ cells (protein, UniProt P09919 31-207, looked up)
Granulocyte …: TPLGPASSLPQSFLLKCLEQVRKIQGDGAALQEKLVSECATYKLCHPEELVLLGHSLGIPWAPLSSCPSQALQLAGCLSQLHSGLFLYQGLLQALEGISPELGPTLDTLQLDVADFATTIWQQMEELGMAPALQPTQGAMPAFASAFQRRAGGVLVASHLQSFLEVSYRVLRHLAQP
Question: With B1 as the molecule, how does the OLFM4 expression [8] read?
Answer: rapidly induced
